Data taken from patent publication US6423706B1, “Antimicrobial locks comprising taurinamide derivatives and carboxylic acids and/or salts thereof” (Biolink Corporation, priority 1998, dated 2002).
Like-named read-outs stand apart in the source and are kept apart here.

Experiments:
S. epidermis = conditions: cited from earlier work
E. coli [1] = conditions: urine isolate, human uroepithelial cells; concentration dependent; cited from earlier work
Candida albicans = conditions: oral isolate, human buccal epithelial cells; concentration dependent; cited from earlier work
[2] = clinical and bacteriologic outcomes, endotoxemia, organ failure, 28-day mortality; cited from earlier work
[3] = test system: Staphylococcus Aureus (VISA, MRSA); conditions: pH 7.0 to pH 5.0; cited from earlier work
[4] = Long term stability of taurolidine in solution; format: physicochemical; conditions: citric acid and sodium citrate buffer, compared with PVP solutions
Excerpt: In addition, citric acid is a known antioxidant. The buffer system created by adjustment of pH using sodium hydroxide also resists changes in the pH due to the oxidation of formaldehyde to formic acid.

[5] = mice; cited from earlier work
B. fragilis = conditions: 0.2 mL of 20% solution in 5% polyvinyl pyrrolidone intravenous; B. fragilis intraperitoneal; cited from earlier work
[6] = mouse, in vivo; cited from earlier work
whole blood = experiment: Clotting of whole pig blood mixed with taurolidine solution with or without ACD-A; conditions: pig blood filled to 30 mL, inspected after 30 minutes
Experimental: A 0.5% solution of taurolidine in Ringer-lactate solution (Thomae, Biberach, Germany) was introduced into each of four polyethylene bottles having a 30 mL volume. Filling volumes were 5, 10, and 15 mL. One bottle was filled with 5 mL of the taurolidine solution and 2 mL ACD-A (Fresenius, Bad Homburg, Germany) solution. ACD-A solution is used for the conservation of whole blood and contains per liter: 22.0 grams of sodium citrate dihydrate, 7.3 grams of citric acid and 34.5 grams of glucose monohydrate.
Blood was collected at the slaughter house from a female pig directly from the slaughter wound into the containers that were then filled up to the 30 mL level. The containers were capped and gently moved to mix blood with the solution. The containers were inspected after 30 minutes. Blood in the containers containing only taurolidine was clotted, but the blood in the container containing the mixture of taurolidine and ACD-A was not clotted.

E. coli [7] = conditions: 0.2 mL of 20% solution in 5% polyvinyl pyrrolidone intravenous; E. coli intraperitoneal; cited from earlier work

O=C(O)CN(CCN(CC(=O)O)CC(=O)O)CC(=O)O [disodium EDTA, ethylenediaminetetraacetic acid]
Bactericidal concentration (S. epidermis; initial inoculum 10^3 CFU per mL, in 24 hours): 20 mg/mL

[H]/N=C(\N/C(=N/[H])NCCCCCCNC(=N)NC(=N)Nc1ccc(Cl)cc1)Nc1ccc(Cl)cc1 [chlorhexidine]
Anti-adherence activity (E. coli [1]): significant
Anti-adherence activity (Candida albicans): significant

CN[C@H](CC(C)C)C(=O)N[C@H]1C(=O)N[C@@H](CC(N)=O)C(=O)N[C@H]2C(=O)N[C@H]3C(=O)N[C@H](C(=O)N[C@H](C(=O)O)c4cc(O)cc(O)c4-c4cc3ccc4O)[C@H](O)c3ccc(c(Cl)c3)Oc3cc2cc(c3O[C@@H]2O[C@H](CO)[C@@H](O)[C@H](O)[C@H]2O[C@H]2C[C@](C)(N)[C@H](O)[C@H](C)O2)Oc2ccc(cc2Cl)[C@H]1O [Vancomycin]
Bactericidal concentration (S. epidermis; initial inocula 10^3 CFU/mL): 0.0067 mg/mL

povidone-iodine
Anti-adherence activity (E. coli [1]): significant
Anti-adherence activity (Candida albicans): significant

heparin
Inhibition of growth (S. epidermis; isolate from catheter of infected patient): does not inhibit the growth

O=S1(=O)CCN(CN2CCS(=O)(=O)NC2)CN1 [taurolidine, bis-(1,1-dioxo-perhydroxy-1,2,4-thiadiazin-4-yl)methane]
Therapeutic effect on outcome [2]: no beneficial therapeutic effect
Taurolidine solubility believed reachable (additional citric acid, without polyol or PVP): 5%
Taurolidine in solution achieved (approximately 2.6% by weight citric acid, no PVP or polyol, pH 5.2 to 5.3): 4.0 weight percent
Dependence of activity on pH [3]: increases with decreasing pH
Anti-adherence activity (E. coli [1]): significant
Anti-adherence activity (Candida albicans): significant
Stability of taurolidine in solution [4]: increases the stability
Intraperitoneal LD50 [5]: ~1500 mg/kg
Mortality rate (B. fragilis): very significantly reduce the mortality rate
Teratogenicity [6]: non-teratogenic
Blood clotting on inspection (whole blood): clotted
Mortality rate (E. coli [7]): very significantly reduce the mortality rate
